Experimental data taken from US12678419B2, “Compounds” (Sitryx Therapeutics Limited, priority 2020, dated 2026).
Where a name gives a salt, the structure may show the parent alone.

What was measured:
[1] = tested on: human hepatocytes; assay: Hepatocyte stability assay, human; assay type: in vitro ADME; conditions: 10 μM compound
Text: (§1) Defrosted cryo-preserved hepatocytes (viability >70%) were used to determine the metabolic stability of a compound via calculation of intrinsic clearance (Clint; a measure of the removal of a compound from the liver in the absence of blood flow and cell binding). Clearance data are particularly important for in vitro work as they can be used in combination with in vivo data to predict the half-life and oral bioavailability of a drug.
(§2) The metabolic stability in hepatocytes assay involves a time-dependent reaction using both positive and negative controls. The cells were pre-incubated at 37° C. and spiked with test compound (and positive control); samples were taken at pre-determined time intervals were analysed to monitor the change in concentration of the initial drug compound over 60 minutes. A buffer incubation reaction (with no hepatocytes present) acted as a negative control and two cocktail solutions, containing compounds with known high and low clearance values (verapamil/7-hydroxycoumarin and propranolol/diltiazem), acted as positive controls. • 1. The assay was run with a cell concentration of 0.5×10^6 cells/mL in Leibovitz buffer. • 2. All compounds and controls were run in duplicate. • 3. Compound concentration was 10 μM. • 4. All compounds and controls were incubated with both cells and buffer to show turnover was due to hepatic metabolism. • 5. All wells on the incubation plate had 326.7 μL of either cells or buffer added. • 6. Prior to assay, cell and buffer-only incubation plates were preincubated for 10 mins at 37° C. • 7. The assay was initiated by adding compounds, 3.3 μL of 1 mM in 10% DMSO-90% Buffer; final DMSO concentration was 0.1%. • 8. Samples were taken at regular timepoints (0, 5, 10, 20, 40, 60 min) until 60 mins. • 9. Sample volume was 40 μL and was added to 160 μL of crash solvent (acetonitrile with internal standard) and stored on ice. • 10. At the end of the assay, the crash plates were centrifuged at 3500 rpm for 20 mins at 4° C. • 11. 80 μL of clear supernatant was removed and mixed with 80 μL of deionised water before being analysed by LC-MS/MS.
(§3) Raw LC-MS/MS data was exported to, and analysed in, Microsoft Excel for determination of intrinsic clearance. The percentage remaining of a compound was monitored using the peak area of the initial concentration as 100%. Intrinsic clearance and half-life values were calculated using a graph of the natural log of percentage remaining versus the time of reaction in minutes. Half-life (min) and intrinsic clearance (Clint in μL min^−1 10^−6 cells) values were calculated using the gradient of the graph (the elimination rate constant, k) and Equations 1 and 2.

[2] = tested on: IL-1β cytokine output from THP-1s; assay: THP-1 AlphaLISA IL-1β cytokine assay; assay type: cell-based
Procedure: (§4) The cytokine inhibition profiles of compounds of formula (I) were determined in a differentiated THP-1 cell assay. All assays were performed in RPMI-1640 growth medium (Gibco), supplemented with 10% fetal bovine serum (FBS; Gibco), 1% penicillin-streptomycin and 1% sodium pyruvate unless specified otherwise. The IL-1β and IL-6 cytokine inhibition assays were each run in a background of differentiated THP-1 cells as described below. All reagents described were from Sigma-Aldrich unless specified otherwise. Compounds were prepared as 10 mM DMSO stocks.
(§5) THP-1 cells were expanded as a suspension up to 80% confluence in appropriate growth medium. Cells were harvested, suspended, and treated with an appropriate concentration of phorbol 12-myristate 13-acetate (PMA) over a 72 hr period (37° C./5% CO2).
(§6) Following 72 hrs of THP-1 cell incubation, cellular medium was removed and replaced with fresh growth media containing 1% of FBS. Working concentrations of compounds were prepared separately in 10% FBS treated growth medium and pre-incubated with the cells for 30 minutes (37° C./5% CO2). Following the 30 minute compound pre-incubation, THP-1s were treated with an appropriate concentration of LPS and the THP-1s were subsequently incubated for a 24 hr period (37° C./5% CO2). An appropriate final concentration of Nigericin was then dispensed into the THP-1 plates and incubated for 1 hour (37° C./5% CO2) before THP-1 supernatants were harvested and collected in separate polypropylene 96-well holding plates.
(§7) Reagents from each of the IL-1β and IL-6 commercial kits (Perkin Elmer) were prepared and run according to the manufacturer's instructions. Subsequently, fluorescence signal detection in a microplate reader was measured (EnVision® Multilabel Reader, Perkin Elmer).
(§8) Percentage inhibition was calculated per cytokine by normalising the sample data to the high and low controls used within each plate (+/− LPS respectively). Percentage inhibition was then plotted against compound concentration and the 50% inhibitory concentration (IC50) was determined from the resultant concentration-response curve.

[3] = tested on: mouse hepatocytes; assay: Hepatocyte stability assay, mouse; assay type: in vitro ADME; conditions: 10 μM compound
Text: as §1, §2, §3

[4] = tested on: NRF2 (nuclear factor erythroid 2-related factor 2); assay: NRF2 +/-GSH activation assay (DiscoverX PathHunter NRF2 translocation kit, U2OS cells); assay type: cell-based; conditions: for Emax (%) +GSH / Emax (%) −GSH: normalised to dimethyl fumarate high control
[5] = tested on: IL-6 cytokine output from THP-1s; assay: THP-1 AlphaLISA IL-6 cytokine assay; assay type: cell-based; conditions: LPS then nigericin, Table 1
Procedure: as §4, §5, §6, §7, §8

[6] = Homo sapiens, THP-1, differentiated THP-1 cells, LPS then nigericin, Table 1
[7] = Homo sapiens, THP-1, differentiated THP-1 cells, Table 2, compounds of formula (XVI)
[8] = differentiated THP-1 cells, Table 2, compounds of formula (XVI)
[9] = differentiated THP-1 cells, LPS then nigericin, Table 1
[10] = Homo sapiens, THP-1, differentiated THP-1 cells

Structure (SMILES) | Clint (μL min^−1 10^−6 cells) [1] [μL min^−1 10^−6 cells] | T½ [1] [min] | IC50 [2, 6] [µM] | Clint (μL min^−1 10^−6 cells) [3] [μL min^−1 10^−6 cells] | T½ [3] [min] | EC50 ([4]; +GSH) [µM] | Emax (%) +GSH ([4]; +GSH) [%] | EC50 ([4]; −GSH) [µM] | Emax (%) −GSH ([4]; −GSH) [%] | IC50 [2, 9] [µM] | other results
C=C(CC(=O)OC1CCc2cc(Cl)cc(Cl)c21)C(=O)OCC(=O)O (single isomer, unassigned; enantiomer 1) [Example 8, 2-((4-((5,7-dichloro-2,3-dihydro-1H-inden-1-yl)oxy)-2-methylene-4-oxobutanoyl)oxy)acetic acid (Enantiomer 1)] | 15 | 106 | 10.6 | 316 | 4 | 16.4 | 264 | 4.8 | 268 | – | –
C=C(CC(=O)OC1CCc2cc(Br)c(OC)cc21)C(=O)OCC(=O)O (single isomer, unassigned; enantiomer 1) [Example 12, 2-((4-((5-bromo-6-methoxy-2,3-dihydro-1H-inden-1-yl)oxy)-2-methylene-4-oxobutanoyl)oxy)acetic acid (Enantiomer 1)] | – | – | 46.4 | – | – | – | – | – | – | – | –
C=C(CC(=O)OC1CCc2c(Cl)cc(F)cc21)C(=O)OCC(=O)O (single isomer, unassigned; enantiomer 1) [Example 19, 2-((4-((4-chloro-6-fluoro-2,3-dihydro-1H-inden-1-yl)oxy)-2-methylene-4-oxobutanoyl)oxy)acetic acid (Enantiomer 1)] | 4 | 335 | 2.2 | 37 | 41 | 10.1 | 48 | 18.1 | 224 | – | –
C=C(CC(=O)OC1CCc2c(Cl)cc(Cl)cc21)C(=O)O (single isomer, unassigned; enantiomer 1) [Intermediate 25, 4-((4,6-dichloro-2,3-dihydro-1H-inden-1-yl)oxy)-2-methylene-4-oxobutanoic acid Enantiomer 1] | – | – | – | – | – | – | – | – | – | – | IC50 [2, 7]: 43.2 µM
C=C(CC(=O)OC1CCCc2cc(C(F)(F)F)ccc21)C(=O)O (single isomer, unassigned; enantiomer 1) [Intermediate 40, 2-methylene-4-oxo-4-((6-(trifluoromethyl)-1,2,3,4-tetrahydronaphthalen-1-yl)oxy)butanoic acid (Enantiomer 1)] | – | – | – | – | – | – | – | – | – | – | IC50 [2, 8]: 5.3 µM
C=C(CC(=O)OC1CCc2c(Cl)cc(Cl)cc21)C(=O)OCC(=O)O (single isomer, unassigned; enantiomer 2) [Example 3, 2-((4-((4,6-dichloro-2,3-dihydro-1H-inden-1-yl)oxy)-2-methylene-4-oxobutanoyl)oxy)acetic acid (Enantiomer 2)] | 16 | 93 | – | >460 | <3 | 15.8 | 211 | 9.8 | 229 | 5.6 | IC50 ([5]; differentiated THP-1 cells): 3.6 µM
C=C(CC(=O)OC1CCc2cc(Cl)c(Cl)cc21)C(=O)OCC(=O)O (single isomer, unassigned; enantiomer 2) [Example 6, 2-((4-((5,6-dichloro-2,3-dihydro-1H-inden-1-yl)oxy)-2-methylene-4-oxobutanoyl)oxy)acetic acid (Enantiomer 2)] | 8 | 207 | – | 69 | 19 | 17.4 | 215 | 8.3 | 242 | 9.9 | –
C=C(CC(=O)OC1CCc2cc(Cl)cc(Cl)c21)C(=O)OCC(=O)O (single isomer, unassigned; enantiomer 2) [Example 9, 2-((4-((5,7-dichloro-2,3-dihydro-1H-inden-1-yl)oxy)-2-methylene-4-oxobutanoyl)oxy)acetic acid (Enantiomer 2)] | 4 | 428 | – | 61 | 21 | 20.6 | 204 | 8.1 | 244 | 11.7 | –
C=C(CC(=O)OC1CCc2cc(Cl)cc(Cl)c2C1)C(=O)OCC(=O)O (single isomer, unassigned; enantiomer 2) [Example 11, 2-((4-((6,8-dichloro-1,2,3,4-tetrahydronaphthalen-2-yl)oxy)-2-methylene-4-oxobutanoyl)oxy)acetic acid (Enantiomer 2)] | 24 | 62 | – | 311 | 5 | – | – | – | – | 6.1 | –
C=C(CC(=O)OC1CCc2cc(Br)c(OC)cc21)C(=O)OCC(=O)O (single isomer, unassigned; enantiomer 2) [Example 13, 2-((4-((5-bromo-6-methoxy-2,3-dihydro-1H-inden-1-yl)oxy)-2-methylene-4-oxobutanoyl)oxy)acetic acid (Enantiomer 2)] | – | – | – | – | – | – | – | – | – | 34.9 | –
C=C(CC(=O)OC1CCc2c(Br)cc(F)cc21)C(=O)OCC(=O)O (single isomer, unassigned; enantiomer 2) [Example 16, 2-((4-((4-bromo-6-fluoro-2,3-dihydro-1H-inden-1-yl)oxy)-2-methylene-4-oxobutanoyl)oxy)acetic acid (Enantiomer 2)] | 15 | 95 | – | >460 | <3 | – | – | – | – | 2.6 | –
C=C(CC(=O)OC1CCCc2cc(C(F)(F)F)ccc21)C(=O)O (single isomer, unassigned; enantiomer 2) [Intermediate 41, 2-methylene-4-oxo-4-((6-(trifluoromethyl)-1,2,3,4-tetrahydronaphthalen-1-yl)oxy)butanoic acid (Enantiomer 2)] | – | – | – | – | – | – | – | – | – | – | IC50 [2, 8]: 31.7 µM
C=C(CC(=O)OCCCCCCCC)C(=O)O [4-octyl itaconate, reference compound] | 401 | 4 | – | 351 | 4 | – | – | – | – | – | –
C=C(CC(=O)OC1CCc2cc(C(F)(F)F)ccc21)C(=O)O (stereo not drawn) [Intermediate 37, 2-methylene-4-oxo-4-((5-(trifluoromethyl)-2,3-dihydro-1H-inden-1-yl)oxy)butanoic acid] | – | – | – | – | – | – | – | – | – | – | IC50 [2, 7]: 18.3 µM
COC(=O)/C=C/C(=O)OC [dimethyl fumarate, reference compound] | – | – | 14.4 | – | – | > 100 | 19 | 6 | 100 | – | IC50 [5, 10]: 9.3 µM
C=C(CC(=O)OC)C(=O)OC [dimethyl itaconate, reference compound] | – | – | > 100 | – | – | – | – | – | – | – | IC50 [2, 7]: > 100 µM; IC50 [5, 10]: > 100 µM
